Key:
Assay type in all cases: biochemical
[1] = H2O2 production by alcohol oxidase on modified pva/polycap polymer versus unmodified poly (vinyl alcohol); settings: direct comparison (data not shown)
[2] = Self-limiting features of peroxide generation, alcohol oxidase-carboxymethylcellulose; settings: carboxymethylcellulose substrate, 37° C.
Protocol: FIG. 4 is a graphical representation of the effect of pH on hydrogen peroxide production. Depicted is hydrogen peroxide production resulting from alcohol oxidase activity with carboxymethylcellulose as a function of pH (with no initial peroxide added, after agitation for 8 hours at 37° C. in normal atmosphere).
FIG. 5 is a graphical representation of the effect of initial hydrogen peroxide (H2O2) on H2O2 production. Depicted is hydrogen peroxide production resulting from alcohol oxidase activity with carboxymethylcellulose as a function of initial hydrogen peroxide added (at pH 6.3, after agitation for 8 hours at 37° C. in normal atmosphere).
One of the enzyme-substrate combinations, alcohol oxidase-carboxymethylcellulose, was further studied. One unit of enzyme was combined with 0.05 ml of 2.5% carboxymethyl cellulose in a test tube and diluted to 0.5 ml with buffer of appropriate pH. The tubes were placed in an oscillating incubator at 37° C. After 8 hours, the tubes were removed and the solution was assayed for H2O2 level.

[3] = Hydrogen peroxide generation by enzymes on substrates; settings: for μg of H2O2 produced/ml: one unit enzyme, pH 6.3, 37° C., 12 h
Protocol: Seven enzymes, including glucose oxidase, glycerol-3-phosphate oxidase, xanthine oxidase, cholesterol oxidase, galactose oxidase, alcohol oxidase and pyruvate oxidase, were tested for hydrogen peroxide generation on five substrates, including tampon material (e.g., cellulosic materials, including, but not limited to, cotton and rayon fibers), polydextran, carboxymethylcellulose, chitosan, and poly (vinyl alcohol).
One unit of each enzyme was combined with 0.05 ml of a saturated solution (in distilled, deionized water) of each substrate in a test tube and diluted to 0.5 ml with buffer (0.5 M Tris buffer, pH adjusted to 6.3). In the case of insoluble substrates, a piece (approximately 0.25 g) of the substrate was placed in the test tube. The tubes were placed in an oscillating incubator at 37° C. After 12 h, the tubes were removed and the solution was assayed for H2O2 level by an established method (Graf, E. and Penniston, J. T., “Method for Determination of Hydrogen Peroxide, With Its Application Illustrated by Glucose Assay,” Clinical Chemistry, 26, 658-660 (1980)). The results are depicted in Table 2 in μg H2O2 per ml. (For production of hydrogen peroxide over time, see FIG. 1.)

[4] = substrate Tampon Material (cotton)

Substance | more H2O2 produced on modified pva/polycap polymer than on unmodified poly (vinyl alcohol) [1] [%] | enzyme activity as a function of pH ([2]; 8 hours, FIG. 4) | hydrogen peroxide production at pH 6.3 ([2]; pH 6.3, 8 hours) | effect of initial hydrogen peroxide on enzyme activity ([2]; pH 6.3, 8 hours, FIG. 5) | level of H2O2 production compared with the other enzymes ([3]; across the five substrates of Table 2) | μg of H2O2 produced/ml ([3]; substrate CM Cellulose) [μg H2O2 per ml] | μg of H2O2 produced/ml ([3]; substrate Chitosan) [μg H2O2 per ml] | μg of H2O2 produced/ml ([3]; substrate Poly(vinyl alcohol)) [μg H2O2 per ml] | μg of H2O2 produced/ml ([3]; substrate Polydextran) [μg H2O2 per ml] | μg of H2O2 produced/ml [3, 4] [μg H2O2 per ml]
alcohol oxidase | 22 | decreased with decreasing pH | high levels of hydrogen peroxide | deactivated in the presence of high concentrations of hydrogen peroxide | highest level of H2O2 production on most of the substrates | 103.96 | 9.38 | 53.20 | 92.89 | 97.84
cholesterol oxidase |  |  |  |  |  | 4.01 | 14.09 | 5.13 | 3.89 | 4.92
galactose oxidase |  |  |  |  |  | 4.43 | 8.06 | 4.34 | 3.89 | 6.45
glucose oxidase |  |  |  |  |  | 3.31 | 10.66 | 4.47 | 54.69 | 4.43
glycerol-3-phosphate oxidase |  |  |  |  |  | 3.97 | 9.01 | 3.85 | 4.01 | 4.84
pyruvate oxidase |  |  |  |  |  | 9.84 | 11.94 | 3.85 | 9.75 | 6.66
xanthine oxidase |  |  |  |  |  | 6.08 | 10.00 | 6.00 | 5.96 | 10.46

Reference: US20040126369A1, “Delivery of peroxide-generating enzymes to the vaginal tract” (priority 2002, published 2004)
